Tests used:
mouse TGR5 receptor [1] = target: T1, mouse TGR5 receptor (Mus musculus, UniProt Q80SS6); assay: Mouse TGR5 cAMP production assay (HTRF, Cisbio cAMP HiRange); type: cell-based; conditions: HEK293-EBNA cells overexpressing mouse TGR5, HTRF cAMP HiRange; coded A-D
T1 construct: expressed in transfected cells; host or cells: HEK293-EBNA (293 c18, ATCC CRL10852), Hygromycin B selection
T1 sequence (Q80SS6 1-329): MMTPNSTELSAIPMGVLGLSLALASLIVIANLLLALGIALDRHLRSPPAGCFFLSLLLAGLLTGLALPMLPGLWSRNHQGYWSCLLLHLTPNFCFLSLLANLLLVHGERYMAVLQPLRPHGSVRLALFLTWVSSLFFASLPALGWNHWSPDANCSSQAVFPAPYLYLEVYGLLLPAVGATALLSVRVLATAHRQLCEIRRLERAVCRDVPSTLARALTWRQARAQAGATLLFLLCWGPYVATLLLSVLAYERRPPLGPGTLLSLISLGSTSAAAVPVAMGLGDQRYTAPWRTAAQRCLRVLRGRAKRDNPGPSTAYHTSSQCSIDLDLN
How it was run: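 cAMP read by HTRF competition after 1 h room-temperature compound exposure of mouse TGR5-overexpressing HEK293-EBNA cells. Cells were suspended in serum-free DMEM containing 500 μM IBMX; compounds ran as 12-point half-log dilutions in duplicate; EC50 derived.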

[2] = Pharmacokinetic profile in mice; type: in vivo; conditions: mouse; fasted male Hilltop mice, 10 mg/kg oral gavage, plasma, mean of three mice
Protocol: Pharmacokinetic Profile in Mice
In this series of studies, the pharmacokinetic profile characteristics of compounds of the present invention were evaluated. The plasma concentration levels of the compounds were monitored in the blood stream (i.e., plasma) after oral gavage using Cmax, and area under the curve (AUC).
8 week old male Hilltop mice were fasted overnight. Animals were randomized into groups (n=9) by body weight. Mice were dosed with 10 mg/kg compound (in 20% PEG400/80% 0.5% carboxymethylcellulose (medium viscosity)+0.25% Tween-80) at a volume of 10 mL/kg through oral gavage. Blood was collected via orbital bleeding at 0, 0.25, 0.5, 1, 2, and 4 h post-dose, with no one mouse having more than 3 blood draws. Blood was collected in EDTA coated tubes. Samples were stored at −20° C. until analysis.
Quantitation of compound levels in plasma was accomplished by LC-MS/MS analysis. Standard curve and quality control samples were prepared in male CD-1 mouse plasma containing EDTA K^2+ as an anticoagulant at final concentrations ranging from 500 to 0.1 ng/mL. The plasma samples, calibration curve standards, and quality control samples were prepared in an identical method in a 96-well deep plate (1 mL) with a quenching solution (1:1 mixed acetonitrile:methanol containing the internal standard Reserpine @ 400 ng/mL). Low volume samples were supplemented with CD-1 mouse plasma. The plate was mixed on multi-tube votex for 1 min and centrifuged at 4000 rpm for 30 min at 4° C. (Sorvall® Super T21) before LC-MS/MS analysis. LC conditions were developed and optimized based on each compound as needed. The outlet of the column was coupled to AB Sciex 4000 QTrap Mass Spectrometer (AB Sciex, Brugg Switzerland). Detection was carried out using multiple reaction monitoring mode with positive-ion detection focusing. The pharmacokinetic parameters were derived from the plasma-time data and calculated using the standard non-compartmental method with WinNonlin (Pharsight, Mountain View, Calif.) or PK Solver (Comp. Meth. Prog. Biomed. (2010), 99, 306-314).
Values reported are the mean plasma concentration of three mice.

human TGR5 receptor = target: T2, human TGR5 receptor (Homo sapiens, UniProt Q8TDU6); assay: Human TGR5 cAMP production assay; type: cell-based; conditions: human TGR5, luminescent cAMP assay; coded A-D; read-out: Human TGR5 Lum. cAMP Activity (EC50)
T2 construct: host or cells: CHO-K1 (hTGR5-CHO cells)
T2 sequence (Q8TDU6 1-330): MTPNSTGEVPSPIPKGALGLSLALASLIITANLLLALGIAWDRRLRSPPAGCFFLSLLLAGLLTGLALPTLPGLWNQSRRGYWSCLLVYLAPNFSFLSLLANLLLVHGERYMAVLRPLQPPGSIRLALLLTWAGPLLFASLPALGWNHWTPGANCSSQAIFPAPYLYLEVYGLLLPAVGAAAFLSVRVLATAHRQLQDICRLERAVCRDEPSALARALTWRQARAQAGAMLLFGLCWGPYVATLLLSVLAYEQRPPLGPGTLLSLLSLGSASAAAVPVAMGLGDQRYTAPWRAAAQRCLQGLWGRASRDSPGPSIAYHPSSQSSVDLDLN
How it was run: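 Intracellular cAMP read by luminescent enzyme-complementation (XS+) after overnight development, following 1 h room-temperature compound treatment of hTGR5-CHO-K1 cells in IBMX plus anti-cAMP antibody. Compounds tested as half-log dilution series; EC50 derived.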

mouse TGR5 receptor [3] = target: T1, mouse TGR5 receptor; assay: Mouse TGR5 cAMP production assay (luminescent, DiscoveRx cAMP XS+); type: cell-based; conditions: HEK293-EBNA cells overexpressing mouse TGR5, luminescent cAMP XS+; coded A-D; read-out: Mouse TGR5 Lum. cAMP Activity (EC50)
Description: Mouse TGR5 cAMP Production Assay
We evaluated compounds of the present invention for their ability to induce cAMP production in HEK-EBNA cells overexpressing the mouse TGR5 receptor. Human embryonic kidney cells (HEK293-EBNA) stably expressing mouse TGR5 receptor were established using the following procedure. Specifically, a commercially-obtained gene encoding mouse TGR5 (accession number BC116914) from Thermo Scientific (Waltham, Mass.) was cloned into an episomal expression vector. The resulting expression plasmid was then transfected into 293 c18 (ATCC® CRL10852™) cells, which express the Epstein-Barr virus nuclear antigen EBNA1 and can support the replication of episomal vectors. Selection for the plasmid was maintained with Hygromycin B. Cells were cultured and maintained in DMEM (Sigma; cat #6429) supplemented with 10% Fetal Bovine Serum, 1% penicillin/streptomycin, 2 mM L-alanine L-glutamine (GlutaMax), and 250 μg/mL Hygromycin.
Two cAMP production assays were developed.
1. Luminescent cAMP Production Assay
In this first cAMP production assay, the cAMP production was measured using DiscoveRx's cAMP XS+ kit following the manufacturer's recommended protocol.
Briefly, HEK293-EBNA cells stably overexpressing mouse TGR5 were harvested using non-enzymatic cell dissociation buffer (Sigma-Aldrich, St. Louis, Mo.), spun down, then resuspended in serum-free DMEM with 500 μM IBMX at a density of 1.25×10^6 cells/mL. 500 μL of cAMP antibody solution was added to […] of cell suspension and incubated at room temperature for 20 min.
Test compounds were serially diluted (half-log dilutions) in DMSO and then further diluted 1:50 in PBS, 10 mM HEPES buffer. 2 μL of serially diluted compound was added to a 384-well low volume plate (Greiner cat #784075) and centrifuged briefly. 2 μL of the cell/cAMP antibody mixture was then added to each compound-containing well and allowed to incubate at room temperature for one (1) hour. Following incubation, the XS+ kits' ED/Lysis/CL Substrate Working Solution was prepared following the manufacturer's recommended protocol and 4 μL was added to each well of the plate. The plate was then incubated for one (1) hour at room temperature. Following incubation, 4 μL of (Enzyme Acceptor) EA reagent was added to the plate and allowed to incubate overnight at room temperature. Luminescent signal was then detected using the Viewlux instrument (Perkin-Elmer, Waltham, Mass.).
In Table 33, EC50 values for both human and mouse cells were determined according to the TGR5 cAMP assays described above.

Row | SMILES | EC50 (mouse TGR5 receptor [1]) | Cmax [2] | EC50 (human TGR5 receptor) | EC50 (mouse TGR5 receptor [3])
1 | Cc1cnccc1-c1cccc([C@H](C)N(CCCC(=O)NCCS(=O)(=O)O)S(=O)(=O)c2cccc(Cl)c2C)c1 [Compound 21AG, (S)-2-(4-(3-chloro-2-methyl-N-(1-(3-(3-methylpyridin-4-yl)phenyl)ethyl)phenylsulfonamido)butanamido)ethanesulfonic acid] | < 100 nM | 14.3 ng/mL | < 100 nM | –
2 | Cc1cnccc1-c1cccc([C@H](C)N(CCCC(=O)NCCNS(N)(=O)=O)S(=O)(=O)c2cccc(Cl)c2C)c1 [Compound 37, (S)-4-(3-chloro-2-methyl-N-(1-(3-(3-methylpyridin-4-yl)phenyl)ethyl)phenylsulfonamido)-N-(2-(sulfamoylamino)ethyl)butanamide] | < 100 nM | 122 ng/mL | < 100 nM | –
3 | Cc1cnccc1-c1cccc(C(C)(C)N(CCCC(=O)NCCS(=O)(=O)O)S(=O)(=O)c2cccc(Cl)c2C)c1 [Compound 20AG, 2-(4-(3-chloro-2-methyl-N-(2-(3-(3-methylpyridin-4-yl)phenyl)propan-2-yl)phenylsulfonamido)butanamido)ethanesulfonic acid] | < 100 nM | 1.4 ng/mL | < 100 nM | –
4 | Cc1cnccc1-c1cccc(C(C)(C)N(CCCC(=O)NCCS(N)(=O)=O)S(=O)(=O)c2cccc(Cl)c2C)c1 [Compound 20AE, 4-(3-chloro-2-methyl-N-(2-(3-(3-methylpyridin-4-yl)phenyl)propan-2-yl)phenylsulfonamido)-N-(2-sulfamoylethyl)butanamide] | < 100 nM | 128 ng/mL | < 100 nM | –
5 | Cc1cnccc1-c1cccc(C(C)(C)N(CCCN/C(=N\C#N)NCCC(=O)O)S(=O)(=O)c2cccc(Cl)c2C)c1 [Compound 25, (E)-3-(3-(3-((3-chloro-2-methyl-N-(2-(3-(3-methylpyridin-4-yl)phenyl)propan-2-yl)phenyl)sulfonamido)propyl)-2-cyanoguanidino)propanoic acid] | < 100 nM | 3.1 ng/mL | < 100 nM | –
6 | COc1cnccc1-c1cccc([C@H](C)NS(=O)(=O)c2cccc(Br)c2)c1 [Compound 2BO] | – | – | 100 to 999 nM | 1000 to 30000 nM
7 | COc1cnccc1-c1cccc(C2(NS(=O)(=O)c3cccc(C(F)(F)F)c3)CC2)c1 [Compound 1BN] | – | – | 100 to 999 nM | 100 to 999 nM
8 | COc1cnccc1-c1cccc(C(C)(C)NS(=O)(=O)c2cccc(C(F)(F)F)c2)c1 [Compound 1AI] | – | – | < 100 nM | 100 to 999 nM
9 | CC(C)(NS(=O)(=O)c1ccccc1C(F)(F)F)c1cccc(-c2ccncc2O)c1 [Compound 1BM] | – | – | < 100 nM | 100 to 999 nM
10 | Cc1noc(C)c1-c1cccc(CNS(=O)(=O)c2cc(C(F)(F)F)ccc2F)c1 [Compound 2AF] | – | – | 1000 to 30000 nM | > 30000 nM
11 | Cc1cccc(S(=O)(=O)NCc2cccc(-c3ccncc3)c2)c1 [Compound 2AI] | – | – | 1000 to 30000 nM | 1000 to 30000 nM
12 | CC(C)(NS(=O)(=O)c1cccc(C(F)(F)F)c1)c1cccc(-c2ccncc2)c1 [Compound 1AD] | – | – | < 100 nM | 1000 to 30000 nM
13 | C[C@@H](NS(=O)(=O)c1cccc(C(F)(F)F)c1)c1cccc(-c2ccncc2F)c1 [Compound 1BD] | – | – | 100 to 999 nM | 1000 to 30000 nM
14 | Cc1cnccc1-c1cccc([C@H](C)NS(=O)(=O)c2cccc(C(F)(F)F)c2)c1 [Compound 5AG, (S)-N-(1-(3-(3-methylpyridin-4-yl)phenyl)ethyl)-3-(trifluoromethyl)benzenesulfonamide] | – | – | < 100 nM | 100 to 999 nM
15 | O=S(=O)(NCc1cccc(-c2ccncn2)c1)c1cccc(C(F)(F)F)c1 [Compound 1BK] | – | – | 1000 to 30000 nM | > 30000 nM
16 | COc1cccc(S(=O)(=O)NCc2cccc(-c3ccncc3)c2)c1 [Compound 2AL] | – | – | 1000 to 30000 nM | > 30000 nM
17 | O=S(=O)(NCc1cccc(-c2ccncc2)c1)c1cccc(Br)c1 [Compound 2AQ] | – | – | 100 to 999 nM | > 30000 nM
18 | CCC(NS(=O)(=O)c1cccc(C(F)(F)F)c1)c1cccc(-c2ccncc2C)c1 (racemic) [Compound 5AU, (+/−)N-(1-(3-(3-methylpyridin-4-yl)phenyl)propyl)-3-(trifluoromethyl)benzenesulfonamide] | – | – | 100 to 999 nM | 100 to 999 nM
19 | C[C@H](NS(=O)(=O)c1ccccc1[N+](=O)[O-])c1cccc(-c2ccncc2Cl)c1 [Compound 2BS] | – | – | 100 to 999 nM | 100 to 999 nM
20 | Cc1cc(-c2cccc(CNS(=O)(=O)c3cccc(C(F)(F)F)c3)c2)ncn1 [Compound 1BI] | – | – | 1000 to 30000 nM | > 30000 nM
21 | O=S(=O)(NCc1cccc(-c2ccncc2Cl)c1)c1cccc(C(F)(F)F)c1 [Compound 1AQ] | – | – | 100 to 999 nM | 1000 to 30000 nM
22 | O=S(=O)(NCc1cccc(-c2ccncc2)c1)c1ccccc1C(F)(F)F [Compound 2AM] | – | – | 1000 to 30000 nM | 1000 to 30000 nM
23 | CC(C)(NS(=O)(=O)c1cccc(C(F)(F)F)c1)c1cccc(-c2ccncc2O)c1 [Compound 1AN] | – | – | 100 to 999 nM | 1000 to 30000 nM
